Test results from patent US7781565B2 (priority 2006, dated 2010).
Entries after “also recorded” stand apart in the source; their conditions may differ.

Each substance was assayed on NCI-60 cell lines.
Assay type: cell-based, human

Substance | Cell Line with which the peptide (and its tripeptide motif) is associated | Cell Line (NCI-60 cell line the peptide is associated with) | Cell Line (NCI-60 cell line the peptide and its motif are associated with) | Cell Line the peptide is associated with (peptide recovered from phage library selection on this NCI-60 cell line)
LLRSAAP | RPMI-8226-Leukemia | – | – | –
LGGGGLL | – | KM-12C Colon | – | –
AGPSRGP | – | – | UACC 257 Melanoma | –
AGGSLGS | H23-Lung | – | – | –
AGGWWVG | – | HCT-15 Colon | – | –
GVSIRQL | H460-Lung | – | – | –
GLRLGVT | – | HT-29 Colon | – | –
RASRIGL | – | – | – | TK-10 Renal
DLGSVQH | – | HT-29 Colon | – | –
YYAGGLK | Hop-62-Lung | – | – | –
SRGSTAG | H322-Lung | – | – | –
GRWTGSS | – | – | – | MCF-7 Breast
VRPRAVL | – | – | UACC62 Melanoma | –
GGSQCDT | K-562-Leukemia | – | – | –
LFHTRSS | – | – | IGROV1 Ovarian | –
AAGRIRP | – | HCT-15 Colon | – | –
ADIGAGG | HL-60-Leukemia | – | – | –
GRLSRAP | – | – | OVCAR-4 Ovarian | –
SRYGVLV | EKVX-Lung | – | – | –
LCDAGPS | – | HCT-116 Colon | – | –
GLGSCAP | – | – | – | RXF393 Renal
SLRGVRV | – | – | UACC62 Melanoma | –

Substance | Cell Line with which the peptide (and its tripeptide motif) is associated | Cell Line (NCI-60 cell line the peptide is associated with) | Cell Line (NCI-60 cell line the peptide and its motif are associated with) | Cell Line the peptide is associated with (peptide recovered from phage library selection on this NCI-60 cell line)
ASGLVVT | – | SNB-75 CNS | – | –
AGRFGAR | – | – | OVCAR-8 Ovarian | –
LKLLSVP | – | HT-29 Colon | – | –
TLGSVRV | – | – | SK-MEL-5 Melanoma | –
FPGSAGS | – | – | – | ACHN Renal
FGIGRGV | – | – | SK-MEL-5 Melanoma | –
RYSTLLR | K-562-Leukemia | – | – | –
SKAVLRS | – | – | SK-MEL-2 Melanoma | –
PPPWGLR | K-562-Leukemia | – | – | –
GGRLLRA | – | – | DU-145 Prostate | –
VTRIRVS | – | – | UACC 257 Melanoma | –
AGPSAWL | Hop-92-Lung | – | – | –
TGFGAVG | HL-60-Leukemia | – | – | –
GGLSVDL | EKVX-Lung | – | – | –
VGLRCSV | – | – | – | BT-549 Breast
SRYSLRS | A549-Lung | – | – | –
GFASLLR | – | HCT-15 Colon | – | –
SGVSVEG | Hop-62-Lung | – | – | –
FLLRSSF | SR Leukemia | – | – | –
WVGSSKF | A549-Lung | – | – | –
HNGRLEV | Hop-62-Lung | – | – | –
GGSSLDA | – | HCT-116 Colon | – | –

Substance | Cell Line with which the peptide (and its tripeptide motif) is associated | Cell Line (NCI-60 cell line the peptide is associated with) | Cell Line (NCI-60 cell line the peptide and its motif are associated with) | Cell Line the peptide is associated with (peptide recovered from phage library selection on this NCI-60 cell line)
ADLGAGW | – | – | OVCAR-4 Ovarian | –
DVETRGS | CCRF-CEM Leukemia | – | – | –
LSLRGGL | – | – | – | MDA-MB-231 Breast
GVRGGGD | – | – | – | CAIK-1 Renal
ASVRAGR | Molt-4-Leukemia | – | – | –
LIHAGGQ | – | – | – | ACHN Renal
ASEGGRA | – | – | SK-OV-3-3 Ovarian | –
NMAGGQE | – | – | IGROV1 Ovarian | –
GEHGLGA | H23-Lung | – | – | –
PRASDIL | – | – | – | BT-549 Breast
AGRGISQ | – | – | UACC62 Melanoma | –
PLAVSMV | SR Leukemia | – | – | –
LAGGVPG | CCRF-CEM Leukemia | – | – | –
TLGRLSS | – | – | DU-145 Prostate | –
FLHMRLS | – | – | M14 Melanoma | –
YDGLVSG | – | COLO-205-Colon | – | –
RGLQGGR | – | – | SK-MEL-2 Melanoma | –
GGWARAV | – | SNB-75 CNS | – | –
WLDASLM | SR Leukemia | – | – | –
LGGLGLS | – | – | OVCAR-5 Ovarian | –
LVSVNGA | – | SNB-19 CNS; also recorded: SF-539 CNS | – | –
GGAVLVA | CCRF-CEM Leukemia | – | – | –

Substance | Cell Line with which the peptide (and its tripeptide motif) is associated | Cell Line (NCI-60 cell line the peptide is associated with) | Cell Line (NCI-60 cell line the peptide and its motif are associated with) | Cell Line the peptide is associated with (peptide recovered from phage library selection on this NCI-60 cell line)
FGRLLSP | – | – | UACC62 Melanoma | –
LSLAGAG | – | HT-29 Colon | – | –
ASLPPRA | EKVX-Lung | – | – | –
TRLGGLT | – | SF-295 CNS | – | –
SVDRGVI | – | LOX-IMVI Melanoma | – | –
GLREVQD | – | – | – | HS 578 T Breast
VLRAASR | – | HT-29 Colon | – | –
YRGSMVG | – | COLO-205-Colon | – | –
VGSSHGL | – | – | SK-MEL-28 Melanoma | –
TAGRLEV | – | – | – | RXF393 Renal
TSLLSFR | CCRF-CEM Leukemia | – | – | –
HVGLLRA | Hop-62-Lung | – | – | –
GGRSKKV | – | SF-268 CNS | – | –
GRVTVAV | A549-Lung | – | – | –
IGWGVLG | – | – | – | BT-549 Breast
TSGAVAP | – | – | – | HS 578 T Breast
WYGGRGN | – | – | OVCAR-4 Ovarian | –
ANGVLEL | Molt-4-Leukemia | – | – | –
YGLRSLV | – | – | – | BT-549 Breast
PFHRRAV | – | – | – | T-47D Breast
LGGRQES | – | – | – | ACHN Renal
NCYSLRS | – | – | OVCAR-4 Ovarian | –

Substance | Cell Line with which the peptide (and its tripeptide motif) is associated | Cell Line (NCI-60 cell line the peptide is associated with) | Cell Line (NCI-60 cell line the peptide and its motif are associated with) | Cell Line the peptide is associated with (peptide recovered from phage library selection on this NCI-60 cell line)
HLRSGFS | – | – | DU-145 Prostate | –
LASLARP | – | – | – | T-47D Breast
AVSLVVL | – | – | OVCAR-8 Ovarian | –
EAGVRLN | – | – | OVCAR-4 Ovarian | –
YWGGSVP | – | – | – | UO31 Renal
GVRPFPR | Hop-62-Lung | – | – | –
ALVSTIL | – | – | – | UO31 Renal
VSGSGTA | – | – | PC3 Prostate | –
LPLLRGI | HL-60-Leukemia | – | – | –
SGLVAMV | – | SW620-Colon | – | –
WFGAVGL | Molt-4-Leukemia | – | – | –
VAASESH | Hop-62-Lung | – | – | –
SLYGLRW | – | – | M14 Melanoma | –
SLYRGRL | – | – | – | T-47D Breast
QVLLRSF | Hop-62-Lung | – | – | –
DAVRGPS | – | – | IGROV1 Ovarian | –
RDGRAVR | – | KM-12C Colon | – | –
DVRAVSS | EKVX-Lung | – | – | –
GPSSMTF | – | COLO-205-Colon | – | –
RPKLRSV | – | MALME-3M Melanoma | – | –
FGGSGVL | H460-Lung | – | – | –
AAVWWAA | – | – | DU-145 Prostate | –

Substance | Cell Line with which the peptide (and its tripeptide motif) is associated | Cell Line (NCI-60 cell line the peptide is associated with) | Cell Line (NCI-60 cell line the peptide and its motif are associated with) | Cell Line the peptide is associated with (peptide recovered from phage library selection on this NCI-60 cell line)
GGLMPRY | – | – | – | BT-549 Breast
AMRPGRL | RPMI-8226-Leukemia | – | – | –
ASYAGLV | – | – | IGROV1 Ovarian | –
ARRGVLG | – | COLO-205-Colon | – | –
LIGPGGR | H322-Lung | – | – | –
WGATAGG | Hop-62-Lung | – | – | –
ANGSSKK | – | – | – | MDA-MB-231 Breast
LRVGIGY | H23-Lung | – | – | –
VRSSGVL | – | – | SK-OV-3-3 Ovarian | –
NELRVCR | – | – | – | SN12C Renal
RDLRVHL | – | – | UACC62 Melanoma | –
TVGSSLG | – | – | – | T-47D Breast
VGAGRFT | – | – | – | MDA-MB-231 Breast
TTLLSRQ | – | – | OVCAR-5 Ovarian | –
LEAGSQL | H226-Lung | – | – | –
GDRGVRG | – | – | A498 Renal | A498 Renal
FGLRNSR | HL-60-Leukemia | – | – | –
VAVGVRS | – | – | – | HS 578 T Breast
EVRSRGS | EKVX-Lung | – | – | –
GWVAVSC | – | LOX-IMVI Melanoma | – | –
RLSMASR | – | – | – | ACHN Renal
NRAVLSA | – | – | SK-OV-3-3 Ovarian | –
